Source: patent US6043235A, “11β-aryl-17, 17-spirothiolane-substituted steroids” (Research Triangle Institute, priority 1999, dated 2000)
pIC50: −log10 of the molar value.

Experiments:
[1] = target: T1, Human Progestin Receptor in T47-D Cells (Homo sapiens, UniProt P06401); assay: Whole cell receptor binding (competition with 3H-R5020) in T-47D human breast carcinoma cells; settings: for pIC50: 50% displacement of 3H-R5020, T-47D cells, overnight incubation; for Relative Binding % Prog.: RBA relative to internal standard progesterone; for Relative Binding % Prog. / Relative Binding % R5020: ratio of concentrations causing 50% displacement, compared in the same assay; for Relative Binding % R5020: RBA relative to reference standard R5020 (promegestone)
T1 construct: The human breast carcinoma (T-47D) cell line was used to assess RBA for progestin receptor; host or cells: T-47D human breast carcinoma cells
T1 sequence (P06401 1-933): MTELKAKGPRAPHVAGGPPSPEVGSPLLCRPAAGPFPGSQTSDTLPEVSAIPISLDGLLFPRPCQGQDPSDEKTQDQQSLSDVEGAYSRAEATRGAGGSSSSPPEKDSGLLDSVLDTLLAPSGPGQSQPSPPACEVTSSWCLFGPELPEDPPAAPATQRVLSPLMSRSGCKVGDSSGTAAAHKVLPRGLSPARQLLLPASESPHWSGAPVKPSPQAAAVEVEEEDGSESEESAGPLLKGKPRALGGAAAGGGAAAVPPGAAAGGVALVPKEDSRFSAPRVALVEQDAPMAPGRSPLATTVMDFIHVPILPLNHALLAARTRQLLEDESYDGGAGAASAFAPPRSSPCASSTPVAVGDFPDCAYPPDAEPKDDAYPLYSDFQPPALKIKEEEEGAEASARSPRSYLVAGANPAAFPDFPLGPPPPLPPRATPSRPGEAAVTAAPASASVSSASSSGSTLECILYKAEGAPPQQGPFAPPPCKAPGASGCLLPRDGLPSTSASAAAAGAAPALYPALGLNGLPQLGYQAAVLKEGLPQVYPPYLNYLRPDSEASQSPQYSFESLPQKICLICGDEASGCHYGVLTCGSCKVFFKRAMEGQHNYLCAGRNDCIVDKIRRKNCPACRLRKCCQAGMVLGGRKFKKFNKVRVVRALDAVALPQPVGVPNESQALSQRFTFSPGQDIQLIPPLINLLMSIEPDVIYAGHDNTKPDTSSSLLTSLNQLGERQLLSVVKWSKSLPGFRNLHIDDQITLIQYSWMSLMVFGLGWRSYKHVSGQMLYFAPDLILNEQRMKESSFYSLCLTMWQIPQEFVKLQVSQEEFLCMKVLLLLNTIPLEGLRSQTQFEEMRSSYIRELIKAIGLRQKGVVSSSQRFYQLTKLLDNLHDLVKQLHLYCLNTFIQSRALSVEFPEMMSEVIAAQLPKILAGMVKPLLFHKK
Method: The biological activity of the compounds of this invention was examined by means of whole cell receptor binding studies.
Receptor Binding. The affinity of the compounds for hormone receptors was determined by standard procedures similar to those that have been described, inter alia, by Wagner et al., Proc. Natl. Acad. Sci., 93, 8739-8744 (1996) for COS-1 cells. The human breast carcinoma (T-47D) cell line was used to assess RBA for progestin receptor. The cell line used was obtained from ATCC (American Type Culture Collection) and stored frozen at -135° C. until a week before the assays were conducted. The cells were thawed and cultured to achieve the desired cell number (5 to 7 days on average). They were maintained at 37° C. with growth media until they were 90-100% confluent, at which time they were recovered from the growth flasks and dispersed into individual wells of a 12-well tissue culture plate at a count of 4×10^5 cells in one mL medium per well. After 24 h the cells adhered to the bottom of the 12-well plates. At this point, the receptor binding assay procedure was initiated by the addition of test or standard compounds with 3H-R5020 (promegestone). After incubation overnight, medium was removed, the cells were washed and solubilized and radioactivity was measured by liquid scintillation spectrometry. Nonspecific binding was determined by incubation with excess of unlabeled R5020 and subtracted from total binding to calculate specific binding. The progesterone binding assay was conducted with several concentrations of the reference standard (promegestone, R-5020) and an internal standard (progesterone). These hormones were allowed to compete with tritiated competitor (3H-promegestone, 3H-R5020) to estimate relative binding. Test steroids were tested at three or more concentrations between 0.01 to 1000 nM. If 50% displacement of the 3H-R5020 from the receptor was not achieved by the unknown, higher or lower concentrations were tested, as needed, to obtain that goal. All compounds were tested in duplicate for at least two assays. The percentage of specifically bound 3H-R5020 for each concentration tested was calculated and binding curves were generated by plotting the percentage of specifically bound 3H-R-5020 versus the concentration of the competitor. The relative binding activity (RBA) of the test compounds, relative to the reference standard (R5020) as well as the internal standard, was determined from the ratio of concentrations causing 50% displacement for each unknown and standard and expressed as a percentage value. These concentrations were obtained by graphical interpolation of the plots.

human progestin receptor = settings: % the affinity of progesterone; Smith et al., J. Biol. Chem. 1974; cited from earlier work

SMILES	pIC50 [1]	Relative Binding % Prog. [1]	Relative Binding % R5020 [1]	affinity relative to progesterone, binding to human progestin receptor (human progestin receptor)
CC(=O)c1ccc([C@H]2C[C@@]3(C)[C@@H](CC[C@@]34CCC[S+]4[O-])[C@@H]3CCC4=CC(=O)CCC4=C32)cc1 (single isomer, unassigned) [Compound 22b, 11β-(4-Acetylphenyl)-1'-oxo-spiro[estra-4,9-diene-17β,2'-thiolane]-3-one]	6.87	25%	2%	
CN(C)c1ccc([C@H]2C[C@@]3(C)[C@@H](CC[C@@]34CCC[S+]4[O-])[C@@H]3CCC4=CC(=O)CCC4=C32)cc1 (single isomer, unassigned) [Compound 21b, 11β-[4-(N,N-Dimethylamino)phenyl]-1'-oxo-spiro[estr-4,9-diene-17β,2'-thiolane]-3-one]	8.18	260%	43%	
CN(C)c1ccc([C@H]2C[C@@]3(C)[C@@H](CC[C@@]34CCCS4)[C@@H]3CCC4=CC(=O)CCC4=C32)cc1 [Compound 12, 11β-[4-(N,N-Dimethylamino)phenyl]-spiro[estra-4,9-diene-17β,2'-thiolane]-3-one]	8.55	983%	105%	
CSC1CCC2C3CCC4=CC(=O)CCC4(C)C3CCC12C (stereo not shown) [17-thiomethylandrost-4-en-3-one]				25%
CC(=O)c1ccc([C@H]2C[C@@]3(C)[C@@H](CC[C@@]34CCC[S+]4[O-])[C@@H]3CCC4=CC(=O)CCC4=C32)cc1 (single isomer, unassigned) [Compound 22a, 11β-(4-Acetylphenyl)-1'-oxo-spiro[estra-4,9-diene-17β,2'-thiolane]-3-one]	6.74	19%	2%	
CN(C)c1ccc([C@H]2C[C@@]3(C)[C@@H](CC[C@@]34CCCS4(=O)=O)[C@@H]3CCC4=CC(=O)CCC4=C32)cc1 [Compound 24, 1',1'-Dioxo-11β-[4-(N,N-dimethylamino)phenyl]-spiro[estra-4,9-diene-17β,2'-thiolane]-3-one]	7.89	199%	29%	
CSc1ccc([C@H]2C[C@@]3(C)[C@@H](CC[C@@]34CCCS4)[C@@H]3CCC4=CC(=O)CCC4=C32)cc1 [Compound 14, 11β-[4-(Methylthio)phenyl]-spiro[estra-4,9-diene-17β,2'-thiolane]-3-one]	8.39	651%	49%	
CN(C)c1ccc([C@H]2C[C@@]3(C)[C@@H](CC[C@@]34CCC[S+]4[O-])[C@@H]3CCC4=CC(=O)CCC4=C32)cc1 (single isomer, unassigned) [Compound 21a, 11β-[4-(N,N-Dimethylamino)phenyl]-1'-oxo-spiro[estr-4,9-diene-17β,2'-thiolane]-3-one]	8.51	825%	128%	
